Data as given in patent US20160015670A1, “COMPOUND, 1-PALMITIN-2-LINOLEIN-3-OLEIN, AND PHARMACEUTICAL PREPARATION AND USE THEREOF” (priority 2014, published 2016).
Values after ≈ are worked out from the molar mass of the structure shown.

Tests used:
Assay in all cases: MTT method in vitro, inhibition of cell growth
Format in all cases: cell-based
[1] = tested on: PANC-1 (human pancreatic cancer cells); conditions: PANC-1, MTT, 48 h
Source text: (§1) (1) Cell lines: PANC-1 (human pancreatic cancer cells), SKOV3 (human ovarian cancer cells), MCF-7 (human breast cancer cells), SMMC-7721 (human liver cancer cells), A549 (human lung cancer cells), BGC-823 (human gastric cancer cells), COLO205 (human colonic cancer cells), storaged and passaged maintainably in Research and Evaluation Center for Pharmacology, Shanghai Institute of Pharmaceutical Industry;
(§2) The inhibition effects of the compound of formula (I) on the above-mentioned cell lines were detected by using MTT method. The specific procedures were as follows:
(§3) (1) Cell culture: (a) Storaged cells were taken out from the liquid nitrogen, thawed quickly in a 37 water bath, then aseptically transferred into 6 ml of cellular medium in a 10 ml centrifugal tube, centrifuged at 1000 rpm for 5 min. The supernatant was discarded, then the precipitated cells were re-suspended in 5-6 ml cellular media by pipetting and transferred into a flask in a 37 incubator for cell culture; (b) Next day, the flask was taken out from the incubator and the used medium was discarded, then the cells were incubated in 5-6 ml fresh medium in the 37 incubator; (c) On the third day, the flask was taken out from the incubator and the used medium was discarded, then 2-3 ml of PBS (pH7.4) was added into the flask with rocking for cleaning it and the used PBS was discarded. Such a cellular cleaning step was repeated once again. 3-5 drops of 0.25% trypsin solution were added into the flask with sloshing, thus well-distributed in it. The flask was capped and placed in a 37 incubator for about 3 min, and the separation of cells from the flask wall was observed under the microscope. 2 ml of cellular medium was added and cells were separated completely from the flask wall by pipetting, then the cell suspension was transferred into 2 separate clean flasks, each containing 5-6 ml medium. The cell suspension was well-distributed by pipetting, then the flask was placed in a 37 incubator. (d) Step (c) was repeated every other day. […]
(§4) (4) Cells in a logarithmic growth stage were trypsinized and washed, then re-suspended in the medium containing 10% calf serum. The number of living cells was counted in Trypan blue dye exclusion method and cell suspensions were adjusted into a density of 2×10^5 cell/ml. […]
(§5) (7) 100 μl of crystal dissolving solution was added into each well and cells were incubated continuously in the incubator overnight, so as to dissolve the resulted formazan crystals sufficiently. Then, the absorbance value was measured at 570 nm for each well.
(§6) (8) Based on absorbance values, inhibition rates on the cell growth were calculated for sample groups of various concentrations. […]
(§7) (1−mean absorbance of experimental wells/mean absorbance of control wells)×100%

[2] = tested on: COLO205 (human colonic cancer cells); conditions: COLO 205, 48 h
Source text: as §1, §2, §3, §4, §5, §6, §7

[3] = tested on: BGC-823 (human gastric cancer cells); conditions: BGC-823, MTT, 48 h
Source text: as §1, §2, §3, §4, §5, §6, §7

[4] = tested on: SMMC-7721 (human liver cancer cells); conditions: SMMC-7721, MTT, 48 h
Source text: as §1, §2, §3, §4, §5, §6, §7

In the case of CC(=O)O[C@H]1C(=O)[C@@]2(C)[C@H]([C@H](OC(=O)c3ccccc3)[C@]3(O)C[C@H](OC(=O)[C@H](O)[C@@H](NC(=O)c4ccccc4)c4ccccc4)C(C)=C1C3(C)C)[C@]1(OC(C)=O)CO[C@@H]1C[C@@H]2O [Taxol, reference compound], the IC50 [1] is reported as 0.44 µg/mL (≈ 0.515 µM), the IC50 [2] is reported as 0.75 µg/mL (≈ 0.878 µM) and the IC50 [3] is reported as 0.24 µg/mL (≈ 0.281 µM). For the same compound, the IC50 [4] was 0.12 µg/mL (≈ 0.141 µM).
